In US10370351B2, “Photoinduced electron transfer voltage-sensitive compounds” (The Regents of the University of California, priority 2016, dated 2019):
Values after ≈ are worked out from the molar mass of the structure shown.

Columns and labels:
[1] = Solubility of VoltageFluor dyes and sulfofluoresceins in water; type: physicochemical; conditions: for solubility at 3 days: water, 20 °C, kinetic from dmso stock, H2O with 0.1% DMSO, read-out: aqueous solubility; for improvement of aqueous solubility by second sulfonate: ds vs ms VF dye, distilled water, 0.1% DMSO, 20 degrees Celsius, UV-Vis
Experimental: Suspensions of 5 milligrams each of solid mono- and disulfo-dichlorofluoresceins in 5 mL of distilled water were created. Over the course of three days, 5 milligrams of solid material was added at a time, ensuring that no visible particulates were present in the solution prior to addition. At the end of the experiment, the suspension was filtered through filter paper and then through a 0.22-μm polytetrafluoroethylene filter into a scintillation vial. 10 μL of this filtrate was used as a stock solution to determine the concentration of fluorescein present via UV-Vis spectrophotometry and the remainder was lyophilized and the amount of solid resulting was measured using an analytical microbalance. For VF dyes (VF2.1.Cl and VF2.2(OMe).Cl, both ms and ds versions), saturated solutions in distilled water were prepared via dilution from a 100 μM stock in DMSO for a resulting solution containing 0.1% DMSO. The solutions were allowed to sit overnight at 20 degrees Celsius and then filtered through 0.22-μm filters. The resulting filtrates were used as stock solutions to determine the amount of VF present via UV-Vis spectrophotometry.

HEK293T cells [2] = experiment: Voltage sensitivity in HEK cells, whole-cell patch clamp with fluorescence imaging; type: cell-based; conditions: for ΔF/F (%) voltage sensitivity: per 100 mV, HEK cells, whole-cell voltage clamp, 200 nM VF; for Improvement (%) in voltage sensitivity: relative to corresponding msVF
Experimental: Functional imaging of VF dyes was performed using a 20× objective paired with image capture from the EMCCD camera at a sampling rate of 0.5 kHz. VF dyes were excited using the 488 nm LED with an intensity of 2.5 W/cm^2. For initial voltage characterization emission was collected with the QUAD filter (430/32, 508/14, 586/30, 708/98 nm) after passing through a quadruple dichroic mirror (432/38, 509/22, 586/40, 654 nm LP).
Recordings were obtained with an Axopatch 200B amplifier (Molecular Devices) at room temperature. The signals were digitized with Digidata 1332A, sampled at 50 kHz and recorded with pCLAMP 10 software (Molecular Devices) on a PC. Fast capacitance was compensated in the on-cell configuration. For all electrophysiology experiments, recordings were only pursued if series resistance in voltage clamp was less than 30 MΩ. For whole-cell, voltage clamp recordings in HEK 293T cells, cells were held at −60 mV and 100 ms hyper- and depolarizing steps applied from −100 to +100 mV in 20 mV increments. For whole-cell, following membrane rupture, resting membrane potential was assessed and recorded at I=0 and monitored during the data acquisition.
Analysis of voltage sensitivity in HEK cells was performed using custom Matlab routines. Briefly, a region of interest (ROI) was selected automatically based on fluorescence intensity and applied as a mask to all image frames. Fluorescence intensity values were calculated at known baseline and voltage step epochs.
To determine the voltage sensitivity of each of the dyes, whole-cell patch clamp electrophysiology was performed on HEK293T cells loaded with 200 nM VF (FIG. 8a-d). Depolarization of the cell membrane in the presence of VF dye results in a large increase of fluorescence, while hyperpolarization results in lower levels of fluorescence (FIG. 8c-d; FIG. 9). As an illustrative comparison, msVF2.2(OMe). […] Cl, at 48% per 100 mV. The disulfoVF2.2(OMe).

[3] = Spectroscopic studies (absorbance, emission, quantum yield); type: physicochemical; conditions: phosphate-buffered saline, pH 7.4 with 0.1% Triton X-100
Experimental: Stock solutions of VF dyes were prepared in DMSO (1.0-10 mM) and diluted with PBS (100 mM Na2HPO4, pH 7.4, 0.1% Triton-X). UV-Vis absorbance and fluorescence spectra were recorded using a Shimadzu 2501 Spectrophotometer (Shimadzu) and a Quantamaster Master 4 L-format scanning spectrofluorometer (Photon Technologies International). The fluorometer is equipped with an LPS-220B 75-W xenon lamp and power supply, A-1010B lamp housing with integrated igniter, switchable 814 photon-counting/analog photomultiplier detection unit, and MD5020 motor driver. Samples were measured in 1-cm path length quartz cuvettes (Starna Cells).

rat hippocampal neurons = experiment: Staining and voltage imaging of cultured rat hippocampal neurons; type: cell-based
Text: Cl, it was expected that disulfoVF2.2(OMe). Cl would be well-suited to observing membrane potential changes in neurons. Cultured rat hippocampal neurons bathed in disulfoVF2.2(OMe). […] Cl was also used to image neuronal activity in midbrain dopaminergic (mDA) neurons derived from cultured human pluripotent stem cells (hPSCs) in culture (FIG. 11b) using differentiation conditions adapted from previously established protocols. mDA neurons stained with dsVF2.2(OMe). […] Functional analysis of human- or patient-derived differentiated neurons in a simple, non-invasive manner enabled by dsVF2.2(OMe). Cl can provide an important diagnostic tool alongside more conventional methods in ascertaining proper differentiation as well as in investigating human disease phenotypes.

HEK cells = experiment: Determination of photostability in HEK cells; type: cell-based; conditions: compared to msVF2.2(OMe).Cl; 1 μM, 488 nm LED
Experimental: HEK cells were incubated separately with ms- and ds-VF2.1.Cl and VF2.2(OMe). Cl at 1 μM in HBSS at 37 degrees Celsius for 15 minutes. Data were acquired with a W-Plan-Apo 63×/1.0 objective (Zeiss) and the ORCA-Flash4.0 camera (Hamamatsu). Images were exposed for 10 milliseconds each across 50 seconds with a constant illumination of the 488 nm LED (153 W/cm^2). The excitation light was collected with the QUAD filter (430/32, 508/14, 586/30, 708/98 nm) after passing through a quadruple dichroic mirror (432/38, 509/22, 586/40, 654 nm LP). The fluorescence curves were background subtracted and then normalized to the fluorescence intensity at t=0 and averaged across five cells of each dye.

HEK293T cells [4] = experiment: Membrane localization after bath loading, fluorescence imaging; type: cell-based; conditions: HEK cells
Text: A total of 9 new dyes were made: 6 new dsVF dyes and 3 new msVF dyes. Both msVF and dsVF dyes display similar excitation and emission profiles to previously reported msVF dyes (Table 1, FIG. 7A-I), and all localized to the plasma membrane when applied to HEK293T cells via bath loading (FIG. 8a-b).

hPSC-derived mDA neurons = experiment: Voltage imaging of hPSC-derived midbrain dopaminergic (mDA) neurons; type: cell-based, human; conditions: mDA neurons stained with 500 nM dye
Experimental: mDA neurons were derived from H1 human embryonic stem cells (hESCs) using medium conditions as described in Kriks et al., Nature, 480, 547, 2011). On Day 25 of differentiation, cells were harvested from the culture platform and pipetted to generate small 50-100 μm clusters, and seeded on 12 mm glass coverslips coated with 20 μg/ml Laminin (ThermoFischer Scientific). Cells were subsequently matured for 10 days before voltage sensitive imaging.
Functional imaging of mDA cells was performed using a 20× objective paired with image capture from the ORCA-Flash4.0 camera (Hamamatsu) at a sampling rate of 100 Hz. VoltageFluor dye was excited using the 488 nm LED with an intensity of 2.5 W/cm^2. Light was collected with the QUAD filter (430/32, 508/14, 586/30, 708/98 nm) after passing through a quadruple dichroic mirror (432/38, 509/22, 586/40, 654 nm LP). For image analysis, a custom Matlab routine was employed. Briefly, a TIFF stack was imported into Matlab and the intensity values a user-designated block of pixels was extracted as an array. The intensity over time for each block was then baseline corrected by fitting to a 2nd degree polynomial. […]

| Compound | ΔF/F (%) voltage sensitivity (HEK293T cells [2]) | Improvement (%) in voltage sensitivity (HEK293T cells [2]) | Φf1 (fluorescence quantum yield) [3] | λabs [3] | λem [3] | also measured |
| --- | --- | --- | --- | --- | --- | --- |
| 5-bromo-2′,7′-dichlorodisulfofluorescein [ds-dichlorofluorescein] |  |  |  |  |  | improvement of aqueous solubility ([1]; relative to monosulfo 5, spectroscopically or gravimetrically): 2.3 fold |
| O=c1cc2oc3cc(O)c(Cl)cc3c(-c3c(S(=O)(=O)O)cc(Br)cc3S(=O)(=O)O)c-2cc1Cl [ds-dichlorofluorescein, 5-bromo-2′,7′-dichlorodisulfofluorescein] |  |  |  |  |  | solubility at 3 days [1]: ≤ 940 µM |
| CN(C)c1ccc(/C=C/c2ccc(/C=C/c3cc(S(=O)(=O)O)c(-c4c5cc(Cl)c(=O)cc-5oc5cc(O)c(Cl)cc45)c(S(=O)(=O)O)c3)cc2)cc1 [dsVF2.1.Cl] | 36% | 21% | 0.08 | 520 nm | 539 nm | improvement of aqueous solubility by second sulfonate [1]: 22% |
| CN(C)c1ccc(/C=C/c2ccc(/C=C/c3cc(S(=O)(=O)O)c(-c4c5cc(F)c(=O)cc-5oc5cc(O)c(F)cc45)c(S(=O)(=O)O)c3)cc2)cc1 [dsVF2.1.F] | 33% | 25% | 0.13 | 507 nm | 529 nm |  |
| CN(C)c1ccc(/C=C/c2ccc(/C=C/c3cc(S(=O)(=O)O)c(-c4c5ccc(=O)cc-5oc5cc(O)ccc45)c(S(=O)(=O)O)c3)cc2)cc1 [dsVF2.1.H] | 20% | 17% | 0.14 | 509 nm | 540 nm |  |
| CCN(CC)c1ccc(/C=C/c2ccc(/C=C/c3cc(S(=O)(=O)O)c(-c4c5cc(Cl)c(=O)cc-5oc5cc(O)c(Cl)cc45)c(S(=O)(=O)O)c3)cc2)c(OC)c1 [dsVF2.2(OMe).Cl] | 63% | 19% | 0.07 | 520 nm | 540 nm | membrane staining of neurons (rat hippocampal neurons; confocal microscopy, 500 nM): bright membrane staining; detection of membrane potential changes (rat hippocampal neurons; rat hippocampal neurons): can be used to detect membrane potential changes in rat hippocampal neurons; ΔF/F (%) voltage sensitivity (HEK293T cells [2]; listed as disulfoVF2.2(OMe). Cl): 63%; ΔF/F (%) voltage sensitivity (HEK293T cells [2]; listed as disulfoVF2.2(OMe).Cl): 63%; ΔF/F (%) voltage sensitivity (HEK293T cells [2]; listed as dsVF2.2(OMe). Cl): approximately 63%; improvement of aqueous solubility by second sulfonate [1]: 55%; photostability (HEK cells): good photostability; membrane localization (HEK293T cells [4]): clear membrane localization; imaging of neuronal activity (hPSC-derived mDA neurons): revealed distinct firing patterns |
| CCN(CC)c1ccc(/C=C/c2ccc(/C=C/c3cc(S(=O)(=O)O)c(-c4c5cc(F)c(=O)cc-5oc5cc(O)c(F)cc45)c(S(=O)(=O)O)c3)cc2)c(OC)c1 [dsVF2.2(OMe).F] | 60% | 22% | 0.06 | 509 nm | 529 nm |  |
| CCN(CC)c1ccc(/C=C/c2ccc(/C=C/c3cc(S(=O)(=O)O)c(-c4c5ccc(=O)cc-5oc5cc(O)ccc45)c(S(=O)(=O)O)c3)cc2)c(OC)c1 [dsVF2.2(OMe).H] | 57% | 9% | 0.11 | 510 nm | 530 nm |  |
| O=c1cc2oc3cc(O)c(Cl)cc3c(-c3ccc(Br)cc3S(=O)(=O)O)c-2cc1Cl [ms-dichlorofluorescein, 5-bromo-2′,7′-dichlorosulfofluorescein] |  |  |  |  |  | solubility at 3 days [1]: 410 µM (≈ 212 µg/mL) |
| CCN(CC)c1ccc(/C=C/c2ccc(/C=C/c3ccc(-c4c5cc(Cl)c(=O)cc-5oc5cc(O)c(Cl)cc45)c(S(=O)(=O)O)c3)cc2)c(OC)c1 [msVF2.2(OMe).Cl] | 53% |  | 0.06 | 518 nm | 534 nm | ΔF/F (%) voltage sensitivity (HEK293T cells [2]; listed as msVF2.2(OMe). Cl): approximately 53% |
| CCN(CC)c1ccc(/C=C/c2ccc(/C=C/c3ccc(-c4c5cc(F)c(=O)cc-5oc5cc(O)c(F)cc45)c(S(=O)(=O)O)c3)cc2)c(OC)c1 [msVF2.2(OMe).F] | 49% |  | 0.06 | 505 nm | 524 nm |  |
| CCN(CC)c1ccc(/C=C/c2ccc(/C=C/c3ccc(-c4c5ccc(=O)cc-5oc5cc(O)ccc45)c(S(=O)(=O)O)c3)cc2)c(OC)c1 [msVF2.2(OMe).H] | 53% |  | 0.08 | 508 nm | 530 nm |  |
